{"source": "patent US20240083885A1", "about": "“COMPOSITIONS AND METHODS FOR INHIBITING M PRO PROTEASE ACTIVITY AND FOR PREVENTING AND TREATING SARS-COV-2 INFECTION” (priority 2020, published 2024)", "key": {"[1]": {"biological_target": "SARS-CoV-2 M^pro (Severe acute respiratory syndrome coronavirus 2 (2019-nCoV) (SARS-CoV-2), UniProt P0DTD1)", "test": "biochemical"}, "[2]": {"test_system": "SARS-CoV-2", "test": "microbe, parasite or virus in culture", "assay_type": "cell-based"}, "[3]": {"test_system": "Vero E6 cells", "test": "Cytotoxicity in Vero E6 cells (neutral red uptake)", "conditions": "read-out: CC50 in Vero E6 cells"}, "[4]": {"test": "in vitro", "conditions": "African green monkey, Vero E6 Cytotoxicity CC50 (μM)"}, "[5]": {"conditions": "Severe acute respiratory syndrome coronavirus 2, Vero C1008; read-out: SARS-COV-2 antiviral activity using immunofluorescence assay EC50"}, "[6]": {"conditions": "read-out: IC50 against SARS-CoV-2 M^pro"}, "[7]": {"conditions": "read-out: SARS-COV-2 main protease enzymatic inhibition IC50"}, "[8]": {"conditions": "Severe acute respiratory syndrome coronavirus 2, Vero C1008; Vero E6 cells, immunofluorescence assay; read-out: SARS-CoV-2 antiviral assay EC50"}, "[9]": {"conditions": "Severe acute respiratory syndrome coronavirus 2, Vero C1008; read-out: antiviral EC50 against SARS-CoV-2 in Vero E6 cells"}, "[10]": {"conditions": "SARS-COV-2 main protease enzymatic inhibition IC50"}, "[11]": {"conditions": "read-out: SARS-CoV-2 M^pro IC50"}}, "note": "Where two headings read alike, the source gives them in different places."}
{"smiles": "C[C@H](NC(=O)C(c1cccnc1)N(C(=O)c1ccco1)c1ccc(-c2ccccc2)cc1)c1ccccc1", "note": "(single isomer, unassigned) [Compound 23S]", "values": [{"measurement": "IC50", "setting": "[1]; IC50 against SARS-CoV-2 M^pro", "value": "> 10", "unit": "µM"}, {"measurement": "IC50", "setting": "[1]; SARS-CoV-2 M^pro IC50 (μM)", "value": "> 10", "unit": "µM"}]}
{"smiles": "C[C@H](NC(=O)C(c1cccnc1)N(C(=O)c1ccco1)c1ccc(-c2ccccc2)cc1)c1ccccc1", "note": "(single isomer, unassigned) [Jun8-76-3B]", "values": [{"measurement": "EC50", "setting": "[2]; [5]", "value": 2.97, "unit": "µM"}, {"measurement": "EC50", "setting": "[1]; SARS-COV-2 main protease enzymatic inhibition (separated diastereomers, printed as EC50)", "value": 1.35, "unit": "µM"}]}
{"smiles": "C[C@H](NC(=O)C(c1cccnc1)N(C(=O)c1ccno1)c1ccc(-c2ccccc2)cc1)c1ccccc1", "note": "(stereo partly shown) [Compound 25]", "values": [{"measurement": "IC50", "setting": "[1]; [6]", "value": "2.47 ± 0.27", "unit": "µM"}, {"measurement": "CC50", "setting": "[3]", "value": "> 100", "unit": "µM"}]}
{"smiles": "CC(C)(C)NC(=O)C(c1cnccn1)N(C(=O)c1ccco1)c1ccc(C(C)(C)C)cc1", "note": "(stereo not shown) [Compound 27]", "values": [{"measurement": "CC50", "setting": "[3]", "value": "> 100", "unit": "µM"}]}
{"smiles": "C[C@H](NC(=O)C(c1cccnc1)N(C(=O)c1ccno1)c1ccc(C2CCCCC2)cc1)c1ccccc1", "note": "(stereo partly shown) [Compound 36]", "values": [{"measurement": "IC50", "setting": "[1]; [6]", "value": "0.81 ± 0.24", "unit": "µM"}]}
{"smiles": "O=C(NCC(c1ccccc1)c1ccccc1)C(c1cccnc1)N(C(=O)c1ccco1)c1ccc(-c2ccccc2)cc1", "note": "(stereo not shown) [Compound 39]", "values": [{"measurement": "IC50", "setting": "[1]; IC50 against SARS-CoV-2 M^pro", "value": "< 5", "unit": "µM"}, {"measurement": "CC50", "setting": "[3]", "value": "> 100", "unit": "µM"}]}
{"smiles": "C[C@H](NC(=O)C(c1cccnc1)N(C(=O)c1ccco1)c1ccc(C(C)(C)C)cc1)c1ccccc1", "note": "(stereo partly shown) [Jun8-56-1]", "values": [{"measurement": "EC50", "setting": "[2]; [5]", "value": 17.2, "unit": "µM"}, {"measurement": "IC50", "setting": "[1]; [7]", "value": 5.7, "unit": "µM"}]}
{"smiles": "CC(C)(C)c1ccc(N(C(=O)c2ccco2)C(C(=O)NC2CC2)c2cccnc2)cc1", "note": "(stereo not shown) [Jun8-58-2]", "values": [{"measurement": "IC50", "setting": "[1]; [7]", "value": 3.86, "unit": "µM"}]}
{"smiles": "C[C@H](NC(=O)C(c1cccnc1)N(C(=O)c1ccco1)c1ccc(C2CCCCC2)cc1)c1ccccc1", "note": "(stereo partly shown) [Jun8-66-1]", "values": [{"measurement": "IC50", "setting": "[1]; [7]", "value": 0.51, "unit": "µM"}]}
{"smiles": "CC(C)(C)c1ccc(N(C(=O)c2ccco2)C(C(=O)NCn2nnc3ccccc32)c2cccnc2)cc1", "note": "(stereo not shown) [Jun8-74-1]", "values": [{"measurement": "IC50", "setting": "[1]; [7]", "value": 8.13, "unit": "µM"}]}
{"smiles": "C[C@H](NC(=O)C(c1cccnc1)N(C(=O)c1ccco1)c1ccc([Si](C)(C)C)cc1)c1ccccc1", "note": "(stereo partly shown) [Jun8-75-2]", "values": [{"measurement": "EC50", "setting": "[2]; Severe acute respiratory syndrome coronavirus 2, Vero C1008, read-out: SARS-COV-2 antiviral activity using immunofluorescence assay EC50", "value": 8.84, "unit": "µM"}, {"measurement": "IC50", "setting": "[1]; [7]", "value": 1.97, "unit": "µM"}]}
{"smiles": "C[C@H](NC(=O)C(c1cccnc1)N(C(=O)c1ccco1)c1ccc(-c2ccccc2)cc1)c1ccccc1", "note": "(stereo partly shown) [Jun8-76-3]", "values": [{"measurement": "CC50 at 5 days", "setting": "[4]", "value": "> 200", "unit": "µM"}, {"measurement": "EC50", "setting": "[2]; [8]", "value": "1.61 ± 0.29", "unit": "µM"}, {"measurement": "EC50", "setting": "[2]; [5]", "value": 1.83, "unit": "µM"}, {"measurement": "EC50", "setting": "[2]; [9]", "value": "0.82 to 4.54", "unit": "µM"}, {"measurement": "IC50", "setting": "[1]; IC50 against SARS-CoV-2 M^pro", "value": "< 3", "unit": "µM"}, {"measurement": "IC50", "setting": "[1]; [10]", "value": 0.31, "unit": "µM"}, {"measurement": "IC50", "setting": "[1]; SARS-CoV-2 M^pro IC50 (μM)", "value": "0.31 ± 0.13", "unit": "µM"}, {"measurement": "CC50", "setting": "[3]", "value": "> 100", "unit": "µM"}]}
{"smiles": "C[C@H](NC(=O)C(c1cccnc1)N(C(=O)c1ccco1)c1ccc(-n2cccc2)cc1)c1ccccc1", "note": "(stereo partly shown) [Jun8-76-5]", "values": [{"measurement": "CC50 at 5 days", "setting": "[4]", "value": "> 200", "unit": "µM"}, {"measurement": "Selectivity index SI CC50/EC50", "setting": "[2]", "value": ">115.6"}, {"measurement": "EC50", "setting": "[2]; [8]", "value": "1.73 ± 0.19", "unit": "µM"}, {"measurement": "EC50", "setting": "[2]; [5]", "value": 1.9, "unit": "µM"}, {"measurement": "EC50", "setting": "[2]; [9]", "value": "0.82 to 4.54", "unit": "µM"}, {"measurement": "IC50", "setting": "[1]; IC50 against SARS-CoV-2 M^pro", "value": "< 3", "unit": "µM"}, {"measurement": "IC50", "setting": "[1]; [7]", "value": 0.94, "unit": "µM"}, {"measurement": "IC50", "setting": "[1]; [11]", "value": "0.94 ± 0.33", "unit": "µM"}, {"measurement": "CC50", "setting": "[3]", "value": "> 100", "unit": "µM"}]}
{"smiles": "CC(C)NC(=O)C(c1cccnc1)N(C(=O)c1ccco1)c1ccc(C(C)(C)C)cc1", "note": "(stereo not shown) [Jun8-88-1]", "values": [{"measurement": "IC50", "setting": "[1]; [7]", "value": 5.37, "unit": "µM"}]}
{"smiles": "CC(C)(C)c1ccc(N(C(=O)c2ccco2)C(C(=O)NC2CCCC2)c2cccnc2)cc1", "note": "(stereo not shown) [Jun8-88-2]", "values": [{"measurement": "EC50", "setting": "[2]; [5]", "value": 12.9, "unit": "µM"}, {"measurement": "IC50", "setting": "[1]; [7]", "value": 2.51, "unit": "µM"}]}
{"smiles": "C[C@H](NC(=O)C(c1cccnc1)N(C(=O)c1c[nH]cn1)c1ccc(-c2ccccc2)cc1)c1ccccc1", "note": "(stereo partly shown) [Jun8-90-3]", "values": [{"measurement": "CC50 at 5 days", "setting": "[4]", "value": "129 ± 25.1", "unit": "µM"}, {"measurement": "EC50", "setting": "[2]; [9]", "value": "0.82 to 4.54", "unit": "µM"}, {"measurement": "IC50", "setting": "[1]; [11]", "value": "0.96 ± 0.09", "unit": "µM"}, {"measurement": "CC50", "setting": "[3]", "value": "> 100", "unit": "µM"}]}
{"smiles": "C[C@H](NC(=O)C(c1cccnc1)N(C(=O)c1ccco1)c1ccc(-c2cccs2)cc1)c1ccccc1", "note": "(stereo partly shown) [Jun8-91-4]", "values": [{"measurement": "IC50", "setting": "[1]; [10]", "value": 14.6, "unit": "µM"}]}
{"smiles": "C[C@H](NC(=O)C(c1cccnc1)N(C(=O)c1ccco1)c1ccc(-c2ccco2)cc1)c1ccccc1", "note": "(stereo partly shown) [Jun8-91-5]", "values": [{"measurement": "IC50", "setting": "[1]; [7]", "value": 2.54, "unit": "µM"}]}
{"smiles": "C[C@H](NC(=O)C(c1cccnc1)N(C(=O)c1ccco1)c1ccc(-c2cnn(C)c2)cc1)c1ccccc1", "note": "(stereo partly shown) [Jun8-91-6]", "values": [{"measurement": "IC50", "setting": "[1]; [10]", "value": 37.3, "unit": "µM"}]}
{"smiles": "C[C@H](NC(=O)C(c1cccnc1)N(C(=O)c1cnco1)c1ccc(-c2ccccc2)cc1)c1ccccc1", "note": "(stereo partly shown) [Jun8-92-2]", "values": [{"measurement": "IC50", "setting": "[1]; [7]", "value": 4.99, "unit": "µM"}]}
{"smiles": "C[C@H](NC(=O)C(c1cccnc1)N(C(=O)c1ccco1)c1ccc(Cc2ccccc2)cc1)c1ccccc1", "note": "(stereo partly shown) [Jun8-92-4]", "values": [{"measurement": "IC50", "setting": "[1]; [7]", "value": 35.1, "unit": "µM"}]}
